Test results: patent US7749983B2, “Metabolically stable alkoxyalkyl esters of antiviral or antiproliferative phosphonates, nucleoside phosphonates and nucleoside phosphates” (priority 2006, dated 2010)
Where “and” joins values, the source holds several entries; their conditions need not be identical. Equal entries are not always repeated. Where two headings read alike, the source gives them in different places.

How the values were obtained:
[1] = system: Ectromelia Virus (ECTV, MOS strain); assay: microbe, parasite or virus in culture; format: cell-based
HFF cells = assay: Neutral-red uptake assay for toxicity; details: 7 days
[2] = system: cowpox virus, strain Brighton; assay: microbe, parasite or virus in culture; format: cell-based; details: for EC50: read-out: Cowpox Brighton EC50
[3] = system: vaccinia virus strain, Copenhagen; assay: microbe, parasite or virus in culture; format: cell-based; details: for EC50: read-out: Vaccinia Copenhagen EC50
ectromelia virus (ECTV) = system: ectromelia virus (ECTV); design: species or system A/Ncr mice; details: mouse, in vivo; for MDD, Mean day of death / Mortality: po
[4] = Metabolic stability testing with monkey liver S9 fractions; details: FIG. 3; 37° C., protein 3 mg/mL, compound 1 μM
[5] = Metabolic stability testing with human liver S9 fractions; details: FIG. 3; 37° C., protein 3 mg/mL, compound 1 μM
[6] = Neutral-red uptake assay for toxicity; details: human, HFF cells
[7] = read-out: Ectromelia Virus EC50

Row | Compound | EC50 [1, 7] [nM] | CC50 (HFF cells; Table 3, neutral-red uptake) [nM] | EC50 [2] [nM] | EC50 [3] [nM] | CC50 (HFF cells; Table 4, neutral-red uptake) [nM] | MDD, Mean day of death (ectromelia virus (ECTV); 2.5 mg/kg) | Mortality (ectromelia virus (ECTV); 2.5 mg/kg) | Mortality (ectromelia virus (ECTV); 5 mg/kg) | Mortality (ectromelia virus (ECTV); 10 mg/kg) | other results
1 | CC(C)CCCCCCCCCCCOCCCOP(=O)(O)CO[C@H](CO)Cn1ccc(N)nc1=O [Compound 12M-TrDP-CDV, 12-methyl-tridecyloxypropyl cidofovir] | 940 | 44000 ± 5400 | 900 | 700 |  |  |  |  |  | 
2 | CC(C)CCCCCCCCCCCCCCOCCCOP(=O)(O)CO[C@H](CO)Cn1cnc2c(N)ncnc21 [15M-HDP-(S)-HPMPA, 3-(15-methylhexadecyloxy)propyl (S)-HPMPA] |  |  | 52 | 12 | 27500 | 14.3 | 3/5 | 0/5 | 0/5 | activity relative to HDP-(S)-HPMPA in lethal ectromelia infection (ectromelia virus (ECTV)): more active than HDP-(S)-HPMPA
3 | CC(C)CCCCCCCCCCCCOCCCOP(=O)(O)CO[C@H](CO)Cn1ccc(N)nc1=O [Compound 13M-TDP-CDV, 13-methyl-tetradecyloxypropyl cidofovir] | 400 | 41000 ± 2000 | 200 | 130 |  | 9.3 | 4/5 | 0/5 | 0/5 | 
4 | CCCCCCCCCCCCCCCCOCCCOP(=O)(O)CO[C@H](CO)Cn1cnc2c(N)ncnc21 [HDP-(S)-HPMPA, reference compound] |  |  | 18 | 10 | 31800 | 9.4 | 5/5 | 1/5 | 0/5 | MDD, Mean day of death (ectromelia virus (ECTV); 5 mg/kg): 11
5 | CC(C)CCCCCCCCCCCCCCOCCCOP(=O)(O)CO[C@H](CO)Cn1ccc(N)nc1=O [Compound 15M-HDP-CDV, 15-methyl-hexadecyloxypropyl cidofovir] | 40 | 15200 ± 5500 | 340 | 100 |  |  |  |  |  | degradation by monkey liver S9 fractions (% of drug remaining versus time), relative to HDP-CDV [4]: markedly slower; degradation by human liver S9 fractions (% of drug remaining versus time), relative to HDP-CDV [5]: markedly slower
6 | CC(C)CCCCCCCCCCCCCCCCOCCOP(=O)(O)CO[C@H](CO)Cn1cnc2c(N)ncnc21 [17M-ODE-(S)-HPMPA, 2-(17-methyloctadecyloxy)ethyl (S)-HPMPA] |  |  | 11 | 9 | 800 |  |  |  |  | 
7 | CCCCCCCCCCCCCCCCCCOCCOP(=O)(O)CO[C@H](CO)Cn1cnc2c(N)ncnc21 [ODE-(S)-HPMPA] |  |  | 12 | 8 | 2100 |  |  |  |  | 
8 | CCCCCCCCCCCCCCCCOCCCOP(=O)(O)CO[C@H](CO)Cn1ccc(N)nc1=O [HDP-CDV, hexadecyloxypropyl-CDV, reference compound] |  |  |  |  |  | 13 | 2/5 | 0/5 | 0/5 | EC50 ([1]; Ectromelia virus, CV-1, read-out: Ectromelia Virus EC50): 140 nM; CC50 at 7 days [6]: 94000 nM; Cowpox Brighton SI (Selectivity Index) = CC50/EC50 [2]: 470; EC50 ([2]; Cowpox virus, HFF): 200 nM; CC50 (in vitro): 10000 nM; Vaccinia Copenhagen SI (Selectivity Index) = CC50/EC50 [3]: 470; EC50 ([3]; Orthopoxvirus vaccinia, HFF): 200 nM
9 | 17-methyl-octadecyloxyethyl cidofovir [Compound 17M-ODE-CDV] | 80 | 15000 ± 4000 | 50 | 32 |  |  |  |  |  | 
10 | CC(C)CCCCCCCCCCCCCCOCCOP(=O)(O)CO[C@H](CO)Cn1cnc2c(N)ncnc21 [15M-HDE-HPMPA, 3-(15-methylhexadceyloxy)ethyl (S)-HPMPA] | 12 |  |  |  |  |  |  |  |  | 
11 | Nc1ccn(C[C@@H](CO)OCP(=O)(O)O)c(=O)n1 [CDV, cidofovir] |  |  | 38100 | 19400 | > 317000 |  |  |  |  | CC50 at 7 days [6]: > 317000 nM; Cowpox Brighton SI (Selectivity Index) = CC50/EC50 [2]: >10 and >8.3; EC50 ([2]; Cowpox virus, HFF): 31000 ± 1700 nM; Vaccinia Copenhagen SI (Selectivity Index) = CC50/EC50 [3]: >17 and >16; EC50 ([3]; Orthopoxvirus vaccinia, HFF): 19000 ± 9900 nM
12 | CCCCCCCCCCCCCCCCOCCOP(=O)(O)COC(CO)Cn1cnc2c(N)ncnc21 (stereo not shown) [HDE-HPMPA, reference compound] | 50 |  |  |  |  |  |  |  |  | 
13 | 14-methyl-pentadecyloxypropyl cidofovir [Compound 14M-PDP-CDV] | 170 | 18000 ± 1100 | 130 | 140 |  | 14 | 1/5 | 0/5 | 0/5 | 
